The values that follow are results of earlier work, collected in US20210319872A1, “DRUG AND DEVICE COMBINATION PRODUCTS WITH IMPROVED SAFETY AND EFFICACY PROFILES” (priority 2016, published 2021).

Molecules are shown by their SMILES.

For the data set the following is noted: in vivo.

As to `CNCC[C@@H](Oc1ccccc1C)c1ccccc1` [Atomoxetine (Strattera)], the Constipation is 18%), Constipation (adult, 8%; pediatric, 1% to 2%), Decrease in; the Decrease in appetite entry is on record as “appetite (adult, 16%; pediatric, 16%), Nausea (adult, 26%;”; the “Delay when starting to pass urine” value is listed as “Renal: Delay when starting to pass urine (adult, 6%)”; the Dysmenorrhea entry was “Reproductive: Dysmenorrhea (adult, 3%), Erectile dysfunction”. Further, the Erectile dysfunction result is recorded as “(adult, 8%)”; the Headache result is on record as “Neurologic: Headache (pediatric, 19%), Insomnia (adult, 15%;”; the “Increased systolic arterial pressure” value is given as “pressure (adult, 4.2% to 12.4%; pediatric, 4.9% to 12.5%),”; the Menopausal flushing result was “Other: Menopausal flushing (adult, 3%)”. Moreover, the Priapism result is “Reproductive: Priapism (rare)”; the Seizure is 0.1%; pediatric, 0.2%); the “Serious side effect, Cardiovascular” value was “Cardiovascular: Myocardial infarction, Sudden cardiac death”; the “Serious side effect, Hepatic” value is listed as “Hepatic: Injury of liver (Severe), Liver failure”. Further, the “Serious side effect, Neurologic” value is on record as “Neurologic: Cerebrovascular accident, Dyskinesia, Seizure (adult,”; the “Serious side effect, Psychiatric” value was “Psychiatric: Mania, Psychotic disorder, Suicidal thoughts”; the Somnolence result is on record as “pediatric, at least 2%), Somnolence (adult, 8%; pediatric, 11%)”; the Suicidal thoughts entry was “(pediatric, 0.4%)”. In addition, the Tachycardia result is listed as “Tachycardia (adult, 1.5% to 22.4%; pediatric, 0.3% to 23.4%)”; the Vomiting result is reported as “pediatric, 7% to 13%), Vomiting (adult, 4%; pediatric, 11%),”; the Weight decreased entry was “Endocrine metabolic: Weight decreased (adults, 2%; pediatric, 3%”; the Xerostomia entry is given as “Xerostomia (adult, 20%)”.
Regarding `CCOC(=O)[C@H](CCc1ccccc1)N[C@H]1CCc2ccccc2N(CC(=O)O)C1=O` [Benazepril (Lotensin)], the “Angioedema, head and neck” value was “Other: Angioedema, head and neck (0.5%)”; the Cough entry is listed as “Respiratory: Cough (1.2%)”; the Dizziness result is “Neurologic: Dizziness (3.6%), Headache (6.2%)”; the Fatigue entry was “Other: Fatigue (2.4%)”. The Headache result is on record as “Neurologic: Dizziness (3.6%), Headache (6.2%)” and the Stevens-Johnson syndrome result is listed as “Dermatologic: Stevens-Johnson syndrome (less than 1%)”.
Consider `CC(C)NCC(O)COc1ccc(CCOCC2CC2)cc1` (stereo not drawn) [Betaxolol (Kerlone)], for which the Arthralgia result is reported as “Musculoskeletal: Arthralgia (3.1% to 5.2%), Chest pain (2.4% to”; the Bradyarrhythmia entry is listed as “Cardiovascular: Bradyarrhythmia (5.8% to 8.1%)”; the “Burning sensation in eye” value is recorded as “Ophthalmic: Burning sensation in eye (30%, ophthalmic)”; the Fatigue entry was “Other: Fatigue (2.9% to 9.7%)”. Moreover, the Indigestion entry was “Gastrointestinal: Indigestion (3.9% to 4.7%), Nausea (1.6% to” and the “Serious side effects, listed without incidence or only as rare” value is recorded as “Cardiovascular: Atrioventricular block, Myocardial infarction”.
As for `CC(C)NCC(O)COc1ccc(COCCOC(C)C)cc1` (stereo not drawn) [Bisoprolol (Zebeta)], the Diarrhea entry is “Gastrointestinal: Diarrhea (2.6% to 3.5%)”; the Fatigue entry was “Other: Fatigue (6.6% to 8.2%)”; the Headache result is recorded as “Neurologic: Headache (8.8% to 10.9%)”; the Rhinitis entry is “Respiratory: Rhinitis (2.9% to 4%), Upper respiratory infection”. In addition, the Upper respiratory infection result is listed as “(4.8% to 5%.)”.
Consider `CS(=O)(=O)O.Fc1ccc([C@@H]2CCNC[C@H]2COc2ccc3c(c2)OCO3)cc1` [Brisdelle], for which the Asthenia result is reported as “Neurologic: Asthenia (2.9% to 22%), Dizziness (6% to 14%),”; the Constipation result was “Gastrointestinal: Constipation (4.9% to 16%), Diarrhea (7.9% to”; the Diaphoresis result is “Dermatologic: Diaphoresis (1% to 14%)”; the Dizziness entry was “Neurologic: Asthenia (2.9% to 22%), Dizziness (6% to 14%),”. Further, the Insomnia result was “vasomotor symptoms, 6.3%), Insomnia (11% to 24%), Somnolence”; the Nausea is given as ≤ 19.2%), Loss of appetite (2% to 9%), Nausea (up to 36.3%),; the Reduced libido is given as 9%), Reduced libido (males, 6% to 15%; females, 0% to 9%); the “Serious side effect, Other” value was “Other: Serotonin syndrome”. Further, the “Serious side effect, Psychiatric” value was “Psychiatric: Depression, Exacerbation, Suicidal thoughts, Suicide”; the Somnolence entry was “(12.7% to 24%), Tremor (up to 14.7%)”; the Tremor entry is “(12.7% to 24%), Tremor (up to 14.7%)”; the Xerostomia result is listed as “Xerostomia (10.8% to 20.6%)”.
On to `CCCCNc1cc(C(=O)O)cc(S(N)(=O)=O)c1Oc1ccccc1` [Bumetanide (Bumex)], for which the “Azotemia (incidence)” value was “Renal: Azotemia (10.6%)”; the “Cramp (incidence)” value is listed as “Musculoskeletal: Cramp (1.1%)”; the “Dizziness (incidence)” value is reported as “Neurologic: Dizziness (1.1%), Headache (0.6%)”; the “Encephalopathy (incidence)” value is given as “Neurologic: Encephalopathy (0.6%)”. Moreover, the “Headache (incidence)” value is on record as “Neurologic: Dizziness (1.1%), Headache (0.6%)”; the “Hyperuricemia (incidence)” value is “Endocrine metabolic: Hyperuricemia (18.4%), Hypochloremia”; the “Hypochloremia (incidence)” value is on record as “(14.9%), Hypokalemia (14.7%)”; the “Hypokalemia (incidence)” value was “(14.9%), Hypokalemia (14.7%)”. For the same molecule, the “Hypotension (incidence)” value is given as “Cardiovascular: Hypotension (0.8%)”, the “Nausea (incidence)” value is on record as “Gastrointestinal: Nausea (0.6%)”, the “Serious side effect listed (incidence not given)” value was “Dermatologic: Stevens-Johnson syndrome” and the “Thrombocytopenia (incidence)” value is listed as “Hematologic: Thrombocytopenia (0.2%)”.
For the molecule `CC(NC(C)(C)C)C(=O)c1cccc(Cl)c1` (stereo not drawn) [Bupropion (Wellbutrin)], the Abdominal pain entry is reported as “Gastrointestinal: Abdominal pain (2% to 9%), Constipation (5% to”; the Agitation entry is on record as “Psychiatric: Agitation (2% to 9%)”; the Confusion result is listed as “Neurologic: Confusion (major depressive disorder, 8%), Dizziness”; the Dizziness entry is “(6% to 11%), Headache (25% to 34%), Insomnia (11% to 20%)”. In addition, the Headache entry was “(6% to 11%), Headache (25% to 34%), Insomnia (11% to 20%)”; the Hostile behavior result is “Hallucinations, Hostile behavior (major depressive disorder, 6%),”; the Insomnia entry is given as “(6% to 11%), Headache (25% to 34%), Insomnia (11% to 20%)”; the Nasopharyngitis result is “Respiratory: Nasopharyngitis (seasonal affective disorder, 13%),”. The Nausea is listed as 10%), Nausea (13% to 18%), Xerostomia (17% to 26%); the Pharyngitis result is on record as “Pharyngitis (major depressive disorder, 3% to 11%), Upper”; the Seizure entry was “Neurologic: Seizure (major depressive disorder, 0.1% to 0.4%)”; the Tachycardia result is “Cardiovascular: Tachycardia (major depressive disorder, 11%)”. Further, the Upper respiratory infection entry is reported as “respiratory infection (seasonal affective disorder, 9%)”; the Weight gain entry was “Endocrine metabolic: Weight gain (2% to 9%), Weight loss (major”; the Weight loss result is on record as “depressive disorder, 14% to 19%)”; the Xerostomia is listed as 10%), Nausea (13% to 18%), Xerostomia (17% to 26%).
`O=C1CC2(CCCC2)CC(=O)N1CCCCN1CCN(c2ncccn2)CC1` [Buspirone (Buspar)]: the Cerebrovascular accident entry was “Neurologic: Cerebrovascular accident (less than 0.1%)”; the Congestive heart failure entry is recorded as “Cardiovascular: Congestive heart failure (less than 0.1%),”; the Dizziness result is reported as “Neurologic: Dizziness (12%), Headache (6%), Somnolence (10%)”; the Feeling nervous result is reported as “Psychiatric: Feeling nervous (5%)”. The Headache result was “Neurologic: Dizziness (12%), Headache (6%), Somnolence (10%)”; the Myocardial infarction result is given as “Myocardial infarction (less than 0.1%)”; the Nausea result was “Gastrointestinal: Nausea (8%)”; the Somnolence entry is reported as “Neurologic: Dizziness (12%), Headache (6%), Somnolence (10%)”.
Consider `CCOc1nc2cccc(C(=O)O)c2n1Cc1ccc(-c2ccccc2-c2nnn[nH]2)cc1` [Candesartan (Atacand)], for which the Backache entry was “Musculoskeletal: Backache (3%.)”; the Dizziness result is listed as “Neurologic: Dizziness (less than 5%)”; the Hypotension result is listed as “Cardiovascular: Hypotension (18.8%)”; the Pharyngitis entry is “Respiratory: Pharyngitis (2%), Rhinitis (2%), Upper respiratory”. For the same molecule, the Rhinitis entry is listed as “Respiratory: Pharyngitis (2%), Rhinitis (2%), Upper respiratory” and the Upper respiratory infection entry is “infection (6%)”.
Turning to `C[C@H](CS)C(=O)N1CCC[C@H]1C(=O)O` [Captopril (Capoten)], the Agranulocytosis entry is given as “Hematologic: Agranulocytosis (0.1% to 0.2%), Neutropenia (0.1%”; the Angioedema result was “Other: Angioedema (0.1%)”; the Cough result is “Respiratory: Cough (0.5% to 2%)”; the Hyperkalemia result is “Endocrine metabolic: Hyperkalemia (11%)”. Besides, the Neutropenia result is listed as “Hematologic: Agranulocytosis (0.1% to 0.2%), Neutropenia (0.1%”.
Turning to `CC(C)(C)NCC(O)COc1cccc2c1CCC(=O)N2` (stereo not drawn) [Carteolol (Cartrol)], the Asthenia entry is on record as “Neurologic: Asthenia (7%.), Dizziness (4% to 15%.), Headache”; the “Burning sensation in eye” value is “Ophthalmic: Blurred vision, Burning sensation in eye (25%),”; the Conjunctival edema result was “Conjunctival edema (25%), Conjunctival hyperemia (25%),”; the Conjunctival hyperemia entry is “Conjunctival edema (25%), Conjunctival hyperemia (25%),”. Further, the Dizziness entry is reported as “Neurologic: Asthenia (7%.), Dizziness (4% to 15%.), Headache”; the Epiphora entry was “Epiphora (25%), Eye irritation (25%)”; the Eye irritation entry was “Epiphora (25%), Eye irritation (25%)”; the Headache result is “(4% to 17%.), Insomnia (2% to 12%.)”. The Insomnia entry is given as “(4% to 17%.), Insomnia (2% to 12%.)”.
